# Measured values published in PubChem BioAssay (NCI).
#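 Here, GI50 denotes the concentration required for 50% inhibition of growth. TGI: total growth inhibition.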
# How the values were obtained:
# Assay in all cases: NCI anticancer screen, dose series, 384-well format
# MALME-3M melanoma = test system: MALME-3M melanoma
# SR leukemia = test system: SR leukemia
# M14 melanoma = test system: M14 melanoma
# SW-620 colon = test system: SW-620 colon
# NCI/ADR-RES ovarian = test system: NCI/ADR-RES ovarian
# NCI-H522 lung = test system: NCI-H522 lung
# MDA-MB-435 melanoma = test system: MDA-MB-435 melanoma
# CAKI-1 renal = test system: CAKI-1 renal
# KM12 colon = test system: KM12 colon
# T-47D breast = test system: T-47D breast
# IGROV1 ovarian = test system: IGROV1 ovarian
# HOP-62 NSCLC = test system: HOP-62 NSCLC
# RXF 393 renal = test system: RXF 393 renal
# NCI-H23 lung = test system: NCI-H23 lung
# MDA-MB-231 breast = test system: MDA-MB-231 breast
# NCI-H226 lung = test system: NCI-H226 lung
# LOX IMVI melanoma = test system: LOX IMVI melanoma
# A549 NSCLC = test system: A549 NSCLC
# U251 glioblastoma = test system: U251 glioblastoma
# SK-MEL-2 melanoma = test system: SK-MEL-2 melanoma
# SK-OV-3 ovarian = test system: SK-OV-3 ovarian
# OVCAR-3 ovarian = test system: OVCAR-3 ovarian
# EKVX NSCLC = test system: EKVX NSCLC
# A498 renal = test system: A498 renal
# OVCAR-5 ovarian = test system: OVCAR-5 ovarian
# HL-60(TB) leukemia = test system: HL-60(TB) leukemia
# RPMI-8226 leukemia = test system: RPMI-8226 leukemia
# 786-0 renal = test system: 786-0 renal
# HS 578T breast = test system: HS 578T breast
# SNB-75 CNS = test system: SNB-75 CNS
# SNB-19 CNS = test system: SNB-19 CNS
# NCI-H460 NSCLC = test system: NCI-H460 NSCLC
# UACC-62 melanoma = test system: UACC-62 melanoma
# HCT-15 colon = test system: HCT-15 colon
# MDA-MB-468 breast = test system: MDA-MB-468 breast
# HCC-2998 colon = test system: HCC-2998 colon
# COLO 205 colon = test system: COLO 205 colon
# OVCAR-8 ovarian = test system: OVCAR-8 ovarian
# PC-3 prostate = test system: PC-3 prostate
# TK-10 renal = test system: TK-10 renal
# DU-145 prostate = test system: DU-145 prostate
# ACHN renal = test system: ACHN renal
# UO-31 renal = test system: UO-31 renal
# HOP-92 NSCLC = test system: HOP-92 NSCLC
# OVCAR-4 ovarian = test system: OVCAR-4 ovarian
# SK-MEL-5 melanoma = test system: SK-MEL-5 melanoma
# SN12C renal = test system: SN12C renal
# MOLT-4 leukemia = test system: MOLT-4 leukemia
# SK-MEL-28 melanoma = test system: SK-MEL-28 melanoma
# SF-539 CNS = test system: SF-539 CNS
# SF-268 CNS = test system: SF-268 CNS
# CCRF-CEM leukemia = test system: CCRF-CEM leukemia
# NCI-H322M lung = test system: NCI-H322M lung
# MCF7 breast = test system: MCF7 breast
# BT-549 breast = test system: BT-549 breast
# HCT-116 colon = test system: HCT-116 colon
# SF-295 CNS = test system: SF-295 CNS
# HT29 colon = test system: HT29 colon
# K-562 leukemia = test system: K-562 leukemia
# UACC-257 melanoma = test system: UACC-257 melanoma
structure (smiles),measurement,setting,value
O=C(c1ccc(F)c(F)c1Nc1ccc(I)cc1F)N1CC(O)([C@@H]2CCCCN2)C1,GI50,MALME-3M melanoma,< 10 nM
same,GI50,SR leukemia,1070 nM
same,TGI,SR leukemia,2330 nM
same,GI50,M14 melanoma,< 10 nM
same,TGI,M14 melanoma,14.6 nM
same,GI50,SW-620 colon,41.7 nM
same,TGI,SW-620 colon,5830 nM
same,GI50,NCI/ADR-RES ovarian,3420 nM
same,TGI,NCI/ADR-RES ovarian,16100 nM
same,GI50,NCI-H522 lung,2600 nM
same,TGI,NCI-H522 lung,17300 nM
same,GI50,MDA-MB-435 melanoma,< 10 nM
same,TGI,MDA-MB-435 melanoma,15800 nM
same,GI50,CAKI-1 renal,565 nM
same,TGI,CAKI-1 renal,10400 nM
same,GI50,KM12 colon,136 nM
same,TGI,KM12 colon,6910 nM
same,GI50,T-47D breast,4790 nM
same,TGI,T-47D breast,12500 nM
same,GI50,IGROV1 ovarian,120 nM
same,TGI,IGROV1 ovarian,4510 nM
same,GI50,HOP-62 NSCLC,403 nM
same,TGI,HOP-62 NSCLC,13500 nM
same,GI50,RXF 393 renal,725 nM
same,TGI,RXF 393 renal,2580 nM
same,GI50,NCI-H23 lung,50.5 nM
same,TGI,NCI-H23 lung,708 nM
same,GI50,MDA-MB-231 breast,172 nM
same,TGI,MDA-MB-231 breast,1360 nM
same,GI50,NCI-H226 lung,230 nM
same,TGI,NCI-H226 lung,6320 nM
same,TGI,LOX IMVI melanoma,527 nM
same,GI50,A549 NSCLC,97.5 nM
same,TGI,A549 NSCLC,2730 nM
same,GI50,U251 glioblastoma,820 nM
same,TGI,U251 glioblastoma,8280 nM
same,GI50,SK-MEL-2 melanoma,18.2 nM
same,TGI,SK-MEL-2 melanoma,52.9 nM
same,GI50,SK-OV-3 ovarian,5110 nM
same,TGI,SK-OV-3 ovarian,18600 nM
same,GI50,OVCAR-3 ovarian,5550 nM
same,TGI,OVCAR-3 ovarian,17200 nM
same,GI50,EKVX NSCLC,1340 nM
same,TGI,EKVX NSCLC,14200 nM
same,GI50,A498 renal,472 nM
same,TGI,A498 renal,2950 nM
same,GI50,OVCAR-5 ovarian,126 nM
same,TGI,OVCAR-5 ovarian,7960 nM
same,GI50,HL-60(TB) leukemia,10.1 nM
same,TGI,HL-60(TB) leukemia,375 nM
same,GI50,RPMI-8226 leukemia,1050 nM
same,TGI,RPMI-8226 leukemia,5220 nM
same,GI50,786-0 renal,1520 nM
same,TGI,786-0 renal,5000 nM
same,GI50,HS 578T breast,4740 nM
same,TGI,HS 578T breast,15900 nM
same,GI50,SNB-75 CNS,1390 nM
same,TGI,SNB-75 CNS,6700 nM
same,GI50,SNB-19 CNS,5490 nM
same,TGI,SNB-19 CNS,18500 nM
same,GI50,NCI-H460 NSCLC,1270 nM
same,TGI,NCI-H460 NSCLC,5740 nM
same,GI50,UACC-62 melanoma,< 10 nM
same,TGI,UACC-62 melanoma,161 nM
same,GI50,HCT-15 colon,1250 nM
same,TGI,HCT-15 colon,9730 nM
same,GI50,MDA-MB-468 breast,3890 nM
same,TGI,MDA-MB-468 breast,9320 nM
same,GI50,HCC-2998 colon,10.2 nM
same,TGI,HCC-2998 colon,77 nM
same,GI50,COLO 205 colon,< 10 nM
same,TGI,COLO 205 colon,27.4 nM
same,GI50,OVCAR-8 ovarian,3860 nM
same,TGI,OVCAR-8 ovarian,10500 nM
same,GI50,PC-3 prostate,7650 nM
same,TGI,PC-3 prostate,19800 nM
same,GI50,TK-10 renal,956 nM
same,TGI,TK-10 renal,10900 nM
same,GI50,DU-145 prostate,1250 nM
same,TGI,DU-145 prostate,15500 nM
same,GI50,ACHN renal,1490 nM
same,TGI,ACHN renal,12200 nM
same,GI50,UO-31 renal,297 nM
same,TGI,UO-31 renal,3770 nM
same,GI50,HOP-92 NSCLC,153 nM
same,TGI,HOP-92 NSCLC,599 nM
same,GI50,OVCAR-4 ovarian,2700 nM
same,TGI,OVCAR-4 ovarian,12400 nM
same,GI50,SK-MEL-5 melanoma,< 10 nM
same,TGI,SK-MEL-5 melanoma,70.3 nM
same,GI50,SN12C renal,645 nM
same,TGI,SN12C renal,16000 nM
same,GI50,MOLT-4 leukemia,2020 nM
same,TGI,MOLT-4 leukemia,4830 nM
same,GI50,SK-MEL-28 melanoma,< 10 nM
same,TGI,SK-MEL-28 melanoma,16.3 nM
same,GI50,SF-539 CNS,969 nM
same,TGI,SF-539 CNS,7010 nM
same,GI50,SF-268 CNS,8350 nM
same,TGI,SF-268 CNS,20500 nM
same,GI50,CCRF-CEM leukemia,3350 nM
same,TGI,CCRF-CEM leukemia,7670 nM
same,GI50,NCI-H322M lung,217 nM
same,TGI,NCI-H322M lung,6610 nM
same,GI50,MCF7 breast,3550 nM
same,TGI,MCF7 breast,7290 nM
same,GI50,BT-549 breast,1400 nM
same,TGI,BT-549 breast,9160 nM
same,GI50,HCT-116 colon,70.3 nM
same,TGI,HCT-116 colon,834 nM
same,GI50,SF-295 CNS,6200 nM
same,TGI,SF-295 CNS,12200 nM
same,GI50,HT29 colon,10.1 nM
same,TGI,HT29 colon,4240 nM
same,GI50,K-562 leukemia,284 nM
same,TGI,K-562 leukemia,1470 nM
same,GI50,UACC-257 melanoma,< 10 nM
same,TGI,UACC-257 melanoma,26.8 nM
